Results published in patent US20230000936A1, “A[…] ITCHING […] C[…]” (Demetrix, Inc., priority 2021, published 2023).
“Also recorded” adds a separate entry of the source.

Experiments:
Assay type in all cases: cell-based
CHRM2 [1] = molecular target: T1, CHRM2 (Homo sapiens, UniProt P08172); assay: GPCR reactivity screen, PathHunter β-Arrestin, agonist assay CHRM2; design: concentration or dose not given beside the values; settings: agonist mode; control acetylcholine
T1 sequence (P08172 1-466): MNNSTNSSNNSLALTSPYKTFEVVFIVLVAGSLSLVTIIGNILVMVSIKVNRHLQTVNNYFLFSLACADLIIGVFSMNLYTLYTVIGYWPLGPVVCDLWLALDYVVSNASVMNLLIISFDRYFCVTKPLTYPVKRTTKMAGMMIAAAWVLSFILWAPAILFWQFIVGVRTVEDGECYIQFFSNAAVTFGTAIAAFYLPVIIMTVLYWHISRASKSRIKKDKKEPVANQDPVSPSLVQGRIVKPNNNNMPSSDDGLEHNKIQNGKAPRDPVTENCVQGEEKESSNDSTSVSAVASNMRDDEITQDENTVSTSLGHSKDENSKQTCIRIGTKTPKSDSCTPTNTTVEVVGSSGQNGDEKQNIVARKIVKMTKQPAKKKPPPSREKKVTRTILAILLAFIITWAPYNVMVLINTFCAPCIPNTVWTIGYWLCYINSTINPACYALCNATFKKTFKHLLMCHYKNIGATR
Method: (§1) To evaluate the role specific cannabinoid compounds play in the neurological signaling pathway for itching, a GPCR reactivity assay was performed to determine the reactivity of 19 cannabinoid compounds to each of CHRM2, EDG3, and MRGPRX2. The evaluated cannabinoid compounds were: CBN, THCV, CBDVA, CBG, CBL, CBC, CBDV, CBDA, CBD, CBGA, (+)-CBD, CBG-C4, CBD-C1, CBD-C2, CBGV, CBGA-C4, CBGVA, CBCA, and CBLA. Acetylcholine was used as the control for CHRM2, sphingosine-1-phosphate was used as the control for EDG3; and cortistatin 14 was used as the control for MRGPRX2.
(§2) A total of six assays were run. Specifically, agonist and antagonist assays were run for each of CHRM2, EDG3, and MRGPRX2. In each of the three agonist assays, PathHunter® cell lines were removed from a freezer stock and seeded at a volume of 20 μL into white walled, 384-well microplates and incubated at 37° C. Each cell was incubated with a sample to induce a response and then diluted to generate a 5× sample in assay buffer. 5 μL of the 5× sample was then added to cells and incubated at 37° C. for 90 or 180 minutes. The final assay concentration was 1%. The assay signal was generated through addition of 12.5 μL or 15 μL (50% V/V) of a detection reagent cocktail followed by a one hour incubation time at room temperature. Microplates were read following signal generation with a PerkinElmer Envision™ (PerkinElmer Inc., Waltham, Mass.) for chemiluminescent signal detection. Reactivity was analyzed using the CBIS data analysis suite (ChemInnovation, CA) where RLU refers to the raw measured values. The percent activity was then calculated using the formula: % Activity=100%*(mean RLU of test sample−mean RLU of control)/(mean max control ligand−mean RLU of vehicle control).
(§3) As used herein, strong activity against a receptor is considered a percent activity of about 42% or higher. Higher results for antagonism against CHRM2, EDGE, and MRGPRX2 are considered better. It is further considered better when a cannabinoid inhibits more than one of the receptors.

CHRM2 [2] = molecular target: T1, CHRM2; assay: GPCR reactivity screen, PathHunter β-Arrestin, antagonist assay CHRM2; settings: for antagonist activity against CHRM2 (in words): GPCR reactivity screen; for CHRM2 (Antagonist) percent inhibition: antagonist mode, agonist challenge at EC80
Method: as §1
(§4) In each of the antagonist assays, PathHunter® cell lines were removed from a freezer stock and seeded at a volume of 20 μL into white walled, 384-well microplates and incubated at 37° C. Each cell was pre-incubated with an antagonist followed by an agonist challenge at the EC80 concentration. Cells were then diluted to generate a 5× sample in assay buffer. 5 μL of the 5× sample was then added to cells and incubated at 37° C. for 30 minutes. Finally, 5 μL of 6×EC80 agonist in assay buffer were added to the cells and incubated at 37° C. for 90 minutes or 180 minutes. The assay signal was generated through addition of 12.5 μL or 15 μL (50% V/V) of a detection reagent cocktail followed by a one hour incubation time at room temperature. Microplates were read following signal generation with a PerkinElmer Envision™ (PerkinElmer Inc., Waltham, Mass.) for chemiluminescent signal detection. Reactivity was analyzed using the CBIS data analysis suite (ChemInnovation, CA) where RLU refers to the raw measured values. The percent inhibition was calculated using the formula: % Inhibition=100%*(1−mean RLU of test sample−mean RLU of control)/(mean RLU of EC80 control−mean RLU of vehicle control).
as §3

EDG3 [3] = molecular target: T2, EDG3 (Homo sapiens, UniProt Q99500); assay: GPCR reactivity screen, PathHunter β-Arrestin, agonist assay EDG3; design: concentration or dose not given beside the values; settings: agonist mode; control sphingosine-1-phosphate
T2 sequence (Q99500 whole entry): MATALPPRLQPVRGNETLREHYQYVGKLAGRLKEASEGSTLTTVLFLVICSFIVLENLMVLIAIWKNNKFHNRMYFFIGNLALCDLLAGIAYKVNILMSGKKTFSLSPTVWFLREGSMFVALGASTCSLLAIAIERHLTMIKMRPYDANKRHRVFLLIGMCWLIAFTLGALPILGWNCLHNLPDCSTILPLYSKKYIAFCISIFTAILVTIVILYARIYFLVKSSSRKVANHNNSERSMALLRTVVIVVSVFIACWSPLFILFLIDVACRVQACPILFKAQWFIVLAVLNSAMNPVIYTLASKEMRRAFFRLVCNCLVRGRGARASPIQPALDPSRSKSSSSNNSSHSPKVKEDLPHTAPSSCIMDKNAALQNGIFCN
Method: as §1, §2, §3

EDG3 [4] = molecular target: T2, EDG3; assay: GPCR reactivity screen, PathHunter β-Arrestin, antagonist assay EDG3; settings: for antagonist activity against EDG3 (in words): GPCR reactivity screen; for EDG3 (Antagonist) percent inhibition: antagonist mode, agonist challenge at EC80
Method: as §1, §4, §3

MRGPRX2 [5] = molecular target: T3, MRGPRX2 (Homo sapiens, UniProt Q96LB1); assay: GPCR reactivity screen, PathHunter β-Arrestin, agonist assay MRGPRX2; settings: agonist mode; control cortistatin 14
T3 sequence (Q96LB1 1-330): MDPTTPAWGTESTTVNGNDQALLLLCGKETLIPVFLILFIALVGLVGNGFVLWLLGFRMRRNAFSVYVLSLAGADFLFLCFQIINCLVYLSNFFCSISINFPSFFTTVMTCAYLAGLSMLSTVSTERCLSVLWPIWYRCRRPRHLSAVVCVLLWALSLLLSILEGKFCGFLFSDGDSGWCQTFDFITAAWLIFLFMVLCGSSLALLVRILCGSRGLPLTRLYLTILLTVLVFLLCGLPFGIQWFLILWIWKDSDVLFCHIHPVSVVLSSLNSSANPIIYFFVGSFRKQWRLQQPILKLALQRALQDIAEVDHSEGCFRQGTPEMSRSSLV
Method: as §1, §2, §3

MRGPRX2 [6] = molecular target: T3, MRGPRX2; assay: GPCR reactivity screen, PathHunter β-Arrestin, antagonist assay MRGPRX2; settings: for antagonist activity against MRGPRX2 (in words): GPCR reactivity screen; for MRGPRX2 (Antagonist) percent inhibition: antagonist mode, agonist challenge at EC80
Method: as §1, §4, §3

CHRM2 [7] = molecular target: T1, CHRM2; assay: IC50 antagonist activity screen, PathHunter β-Arrestin, CHRM2; settings: for maximum inhibition (antagonism) CHRM2: maximum of IC50 curve; for antagonism of CHRM2 (in words): IC50 data
Method: as §4
(§5) IC50 curves were measured using the same GPCR assay, PathHunter® β-Arrestin from Eurofins DiscoverX Products (Fremont, Calif.), as the GPCR reactivity screen. As used herein, strong activity against a receptor is considered a maximum activity of about 42% or higher. Higher results for antagonism against CHRM2, EDGE, and MRGPRX2 are considered better. It is further considered better when a cannabinoid inhibits more than one of the receptors.

EDG3 [8] = molecular target: T2, EDG3; assay: IC50 antagonist activity screen, PathHunter β-Arrestin, EDG3; settings: for maximum inhibition (antagonism) EDG3: maximum of IC50 curve; for antagonism of EDG3 (in words): IC50 data
Method: as §4, §5

MRGPRX2 [9] = molecular target: T3, MRGPRX2; assay: IC50 antagonist activity screen, PathHunter β-Arrestin, MRGPRX2; settings: for maximum inhibition (antagonism) MRGPRX2: maximum of IC50 curve; for antagonism of MRGPRX2 (in words): IC50 data
Method: as §4, §5

## CCCCCc1cc(O)c2c(c1)OC(C)(CCC=C(C)C)C=C2 (centres unmarked) [CBC, cannabichromene]
CHRM2 [1]
  CHRM2 (Agonist) percent activity: 12%
CHRM2 [2]
  antagonist activity against CHRM2 (in words): strong to moderate antagonist activity
  CHRM2 (Antagonist) percent inhibition: 89%
EDG3 [3]
  EDG3 (Agonist) percent activity: −1%
EDG3 [4]
  antagonist activity against EDG3 (in words): strong to moderate antagonist activity
  EDG3 (Antagonist) percent inhibition: 48%
MRGPRX2 [5]
  MRGPRX2 (Agonist) percent activity: 9%
MRGPRX2 [6]
  antagonist activity against MRGPRX2 (in words): strong to moderate antagonist activity
  MRGPRX2 (Antagonist) percent inhibition: 89%
CHRM2 [7]
  maximum inhibition (antagonism) CHRM2: 85%
EDG3 [8]
  maximum inhibition (antagonism) EDG3: 43%
MRGPRX2 [9]
  maximum inhibition (antagonism) MRGPRX2: 91%

## CCCCCc1cc2c(c(O)c1C(=O)O)C=CC(C)(CCC=C(C)C)O2 (centres unmarked) [CBCA, cannabichromenic acid]
CHRM2 [1]
  CHRM2 (Agonist) percent activity: −1%
CHRM2 [2]
  antagonist activity against CHRM2 (in words): do not exhibit an antagonistic effect
  CHRM2 (Antagonist) percent inhibition: 7%
EDG3 [3]
  EDG3 (Agonist) percent activity: 1%
EDG3 [4]
  antagonist activity against EDG3 (in words): do not exhibit an antagonistic effect
  EDG3 (Antagonist) percent inhibition: 32%
MRGPRX2 [5]
  MRGPRX2 (Agonist) percent activity: 4%
MRGPRX2 [6]
  antagonist activity against MRGPRX2 (in words): do not exhibit an antagonistic effect; also recorded: antagonist activity
  MRGPRX2 (Antagonist) percent inhibition: 49%
EDG3 [8]
  maximum inhibition (antagonism) EDG3: 25%
MRGPRX2 [9]
  maximum inhibition (antagonism) MRGPRX2: 35%

## C=C(C)[C@@H]1CCC(C)=C[C@H]1c1c(O)cc(CCCCC)cc1O [CBD, cannabidol]
CHRM2 [1]
  CHRM2 (Agonist) percent activity: 12%
CHRM2 [2]
  antagonist activity against CHRM2 (in words): antagonist activity
  CHRM2 (Antagonist) percent inhibition: 81%
EDG3 [3]
  EDG3 (Agonist) percent activity: 2%
EDG3 [4]
  EDG3 (Antagonist) percent inhibition: 35%
MRGPRX2 [5]
  MRGPRX2 (Agonist) percent activity: 11%
MRGPRX2 [6]
  antagonist activity against MRGPRX2 (in words): antagonist activity
  MRGPRX2 (Antagonist) percent inhibition: 85%
CHRM2 [7]
  maximum inhibition (antagonism) CHRM2: 75%
EDG3 [8]
  maximum inhibition (antagonism) EDG3: 30%
MRGPRX2 [9]
  maximum inhibition (antagonism) MRGPRX2: 96%

## CCCCCc1cc(O)c(C/C=C(\C)CCC=C(C)C)c(O)c1 [CBG, cannabigerol]
CHRM2 [1]
  CHRM2 (Agonist) percent activity: 0%
CHRM2 [2]
  CHRM2 (Antagonist) percent inhibition: 20%
EDG3 [3]
  EDG3 (Agonist) percent activity: 8%
EDG3 [4]
  EDG3 (Antagonist) percent inhibition: 42%
MRGPRX2 [5]
  MRGPRX2 (Agonist) percent activity: 2%
MRGPRX2 [6]
  antagonist activity against MRGPRX2 (in words): antagonist activity
  MRGPRX2 (Antagonist) percent inhibition: 96%
CHRM2 [7]
  maximum inhibition (antagonism) CHRM2: 13%
EDG3 [8]
  maximum inhibition (antagonism) EDG3: 36%
MRGPRX2 [9]
  maximum inhibition (antagonism) MRGPRX2: 92%

## CCCCCCc1cc(O)c(C/C=C(\C)CCC=C(C)C)c(O)c1C(=O)O [CBGA-C6, cannabigerolic acid hexyl]
CHRM2 [7]
  antagonism of CHRM2 (in words): do not exhibit an antagonistic effect
  maximum inhibition (antagonism) CHRM2: 6%
EDG3 [8]
  antagonism of EDG3 (in words): do not exhibit an antagonistic effect
  maximum inhibition (antagonism) EDG3: 33%
MRGPRX2 [9]
  antagonism of MRGPRX2 (in words): do not exhibit an antagonistic effect
  maximum inhibition (antagonism) MRGPRX2: 13%

## CCCCCCCc1cc(O)c(C/C=C(\C)CCC=C(C)C)c(O)c1C(=O)O [CBGA-C7, cannabigerolic acid heptyl]
CHRM2 [7]
  antagonism of CHRM2 (in words): do not exhibit an antagonistic effect
  maximum inhibition (antagonism) CHRM2: 4%
EDG3 [8]
  antagonism of EDG3 (in words): do not exhibit an antagonistic effect
  maximum inhibition (antagonism) EDG3: 30%
MRGPRX2 [9]
  antagonism of MRGPRX2 (in words): do not exhibit an antagonistic effect
  maximum inhibition (antagonism) MRGPRX2: 37%

## CCCCCCCCCc1cc(O)c(C/C=C(\C)CCC=C(C)C)c(O)c1C(=O)O [CBGA-C9, cannabigerolic acid nonyl]
CHRM2 [7]
  maximum inhibition (antagonism) CHRM2: 11%
EDG3 [8]
  maximum inhibition (antagonism) EDG3: 58%
MRGPRX2 [9]
  maximum inhibition (antagonism) MRGPRX2: 56%

## (+)-cannabidiol [(+)-CBD]
CHRM2 [1]
  CHRM2 (Agonist) percent activity: 7%
CHRM2 [2]
  antagonist activity against CHRM2 (in words): strong to moderate antagonist activity
  CHRM2 (Antagonist) percent inhibition: 67%
EDG3 [3]
  EDG3 (Agonist) percent activity: 21%
EDG3 [4]
  antagonist activity against EDG3 (in words): strong to moderate antagonist activity
  EDG3 (Antagonist) percent inhibition: 55%
MRGPRX2 [5]
  MRGPRX2 (Agonist) percent activity: 9%
MRGPRX2 [6]
  antagonist activity against MRGPRX2 (in words): strong to moderate antagonist activity
  MRGPRX2 (Antagonist) percent inhibition: 92%
CHRM2 [7]
  maximum inhibition (antagonism) CHRM2: 62%
EDG3 [8]
  maximum inhibition (antagonism) EDG3: 24%
MRGPRX2 [9]
  maximum inhibition (antagonism) MRGPRX2: 94%
